Patent US20260234180A1, “AMINO ACID DERIVATIVE, PREPARATION METHOD THEREFOR, AND PHARMACEUTICAL COMPOSITION FOR TREATING HEPATITIS, COMPRISING SAME” (priority 2021, published 2026)

Experiments:
HBV virus = assay: HBV infection of HepG2-NTCP cells, Southern blot analysis; assay type: cell-based, hepatitis B virus (HBV); conditions: 20 μM
Method: Specifically, the HepG2-NTCP cell line was cultured on a 6-well plate, incubation was performed overnight, HBV inhibitors were treated at a concentration of 20 μM, and the positive control Myrcludex-B (MyrB) was treated at a concentration of 200 nM, followed by culture for 24 hours. After HBV infection into the cells to make HBV 3000 genome equivalent per ml/cell (Geq/cell), the cell culture medium was replaced (medium changing, MC) a day after the viral infection to remove the virus unattached to cell membranes. In order to measure an amount of virus that entered the cell, medium changing (MC) was performed once more 4 days after viral infection. 2 days after replacement, HBeAg ELISA analysis was performed using a supernatant, and Southern blot analysis was performed with cell pellets.
First, the cell pellets were pipetted with 100 μl of HEPES lysis buffer (10 mM HEPES, 100 mM NaCl, 1 mM EDTA, 1% NP-40), placed on ice for 20 minutes, and then centrifuged with a centrifuge under the conditions at 4° C. and 13000 rpm. After transferring the supernatant only to the new microtube, 4.5 μl of nuclease buffer I (10 mM CaCl2), 12 mM MgCl2, DNase 10 units) was added to carry out a reaction at 37° C. for 2 hours, and 40 μl of 26% PEG solution was added, followed by a reaction on ice for 1 hour. After centrifuging with the centrifuge at 4° C. and 13000 rpm for 30 minutes, and the supernatant was removed cleanly. After releasing the pellets with 100 μl of nuclease buffer II (10 mM Tris, 8 mM CaCl2), 6 mM MgCl2), 287.5 μl of 0.5% SDS buffer (25 mM Tris, 10 mM EDTA, 0.5% SDS, 100 mM NaCl) was added, and 12.5 μl of 20 mg/ml proteinase K was added, followed by a reaction at 37° C. for 2 hours. 400 μl of phenol-chloroform-isoamyl alcohol was added, centrifugation was performed at room temperature at 13000 rpm after voltexing, the supernatant was transferred to a new tube, 40 μl of 3 M NaOAc was added, and 800 μl of 100% ethanol was added for inverting, followed by a reaction overnight at −20° C. After performing centrifugation at 4° C. and 13000 rpm for 30 minutes, 800 μl of 70% ethanol was added and mixed to the pellet obtained by removing the supernatant, centrifugation was performed at 4° C. and 13000 rpm for 10 minutes, and then the supernatant was discarded. The ethanol was dried for 5 minutes to leave only the HBV DNA pellets, and then the pellets were dissolved again in 15 μl of TE buffer (10 mM Tris, 1 mM EDTA). HBV DNA samples were loaded in 1% agarose gel, and electrophoresis was performed. It was then immersed in denature buffer (0.25 N NaOH, 1 M NaCl) for 30 minutes to denature dsDNA of HBV into ssDNA. The DNA in the gel was transferred to a Nylon membrane using a transfer buffer (0.4 M NaOH), the membrane was soaked with a 2×SSC buffer (sigma, cat #85639) for neutralization, followed by drying in air. The membrane was immersed in a church buffer (10% BSA, 0.5 M EDTA, 1 M NaPi, 20% SDS), and the radioisotopes were hybridized using a Mega prime kit (GE healthcare, RPN1607). After washing three times with washing buffer (2×SSC, 0.1% SDS), measurement was performed using radioisotope measurement equipment, and a relative replication rate (%) to the negative control group (Mock) was calculated and shown.

[1] = target: T1, NTCP (Na+ taurocholate cotransporting peptide), HepG2-hNTCP-C4 cell line (Homo sapiens, UniProt Q14973); assay: Inhibition of binding between FITC-labelled PreS1 and NTCP expressing cell line, flow cytometry
T1 construct: expressed in transfected cells; host or cells: HepG2-hNTCP-C4 (HepG2 cells expressing human NTCP)
T1 sequence (Q14973 1-349): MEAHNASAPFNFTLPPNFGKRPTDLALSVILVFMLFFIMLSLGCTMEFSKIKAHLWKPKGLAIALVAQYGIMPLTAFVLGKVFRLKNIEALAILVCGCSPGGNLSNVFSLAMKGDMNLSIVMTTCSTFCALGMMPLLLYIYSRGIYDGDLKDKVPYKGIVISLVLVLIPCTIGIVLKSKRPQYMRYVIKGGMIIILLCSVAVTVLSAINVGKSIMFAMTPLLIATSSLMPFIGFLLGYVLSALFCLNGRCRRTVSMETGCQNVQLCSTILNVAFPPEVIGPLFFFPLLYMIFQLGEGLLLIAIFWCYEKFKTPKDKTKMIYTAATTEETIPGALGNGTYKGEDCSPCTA
Method: HepG2-hNTCP-C4 cell line, a cell line expressing NTCP, was seeded in a 6 well plate at a density of 2×10^5/well and incubated at 4° C. for 30 minutes when the confluency reached 80% after overnight incubation for 2 days. Thereafter, 20 nM PreS1 (Myr-GTNL […]-Lys(FITC) (SEQ ID NO: 1)) and the compounds in Example 1, Examples 38 to 56 or the compound in Comparative Example 1 were treated by diluting in culture media at 4° C. at a concentration of 50 µM respectively, and the media was suctioned after 2 hours, followed by washing 3 times with 4° C. PBS. In order to take the cells off from the plate, 500 μl of 0.5 mM EDTA PBS solution was treated, and then incubation was performed at 37° C. for 15 minutes to check whether the cells fell off through an optical microscope. After taking off the cells by pipetting, the cells were collected in a 1.5 ml tube and centrifuged (4000 rpm, 4° C., 3 min). After suctioning the supernatant, the pellet was washed 3 times with 4° C. PBS, and then green fluorescence was measured via flow cytometry. In this case, taurocholic acid (TCA), a compound known as a substrate of NTCP to reduce the entry of HBV or HDV, was used as a positive control group.
In the graph at the top of FIG. 1, black (1) and red (2) indicate a negative control group with no treatment and an HBV-induced group (HBV preS1) solely treated with PreS1, respectively. Blue (HBV preS1+HBV entry inhibitor) (3) is the fluorescence value for each of Examples or Comparative Examples, evaluated that the closer to the negative control group, the more inhibited the binding between PreS1 and the NTCP cell line.
The experimental method was the same as in the Experimental Example 1-1, and 20 nM PreS1 and each compound were treated at 4 concentrations (0.2 μM, 2 μM, 10 μM, 50 μM).
With an expectation that there is a structure-activity relationship among compounds composed of bile acid and amino acids, for each of bile acids in Comparative Example 1 (lithocholic acid, LCA), Comparative Example 2 (ursodeoxycholic acid, UDCA), Comparative Example 3 (cholic acid, CA), Comparative Example 4 (hyodeoxycholic acid, HDCA), Comparative Example 5 (deoxycholic acid, DCA), and Comparative Example 6 (chenodeoxycholic acid, CDCA), an evaluation experiment was conducted on an ability to inhibit the binding between PreS1 and NTCP expressing cell lines, and also for Examples 1 (LCA-Ile) and Example 44 (LCA-Val) as well as the compounds in Example 2 (UDCA-Ile), Example 3 (UDCA-Val), Example 6 (CA-Ile), Example 7 (CA-Val), Example 8 (HDCA-Ile), Example 9 (HDCA-Val), Example 10 (DCA-Ile), Example 11 (DCA-Val), Example 14 (CDCA-Ile), and Example 15 (CDCA-Val) in which bile acid parts (lithocholic acid) of Example 1 (LCA-Ile) and Example 44 (LCA-Val) were substituted with other types of bile acids in Comparative Examples 2 to 6, an evaluation experiment was conducted on an ability to inhibit the binding between PreS1 and NTCP expressing cell lines. The experimental method was the same as in the Experimental Example 1-1, and 18 compounds in the Comparative Examples 1 to 6, Examples 1 to 3, Examples 6 to 11, Examples 14 to 15, and Example 44 were treated at a concentration of 50 µM along with 20 nM PreS1.
In FIG. 9, an evaluation experiment was conducted to check a degree of inhibiting the binding between PreS1 and NTCP expressing cell lines for compounds in Examples 4 to 5, Examples 12 to 13, Examples 16 to 17, and Comparative Examples 2 (ursodeoxycholic acid, UDCA), Comparative Examples 5 (deoxycholic acid, DCA), and Comparative Examples 6 (chenodeoxycholic acid, CDCA) according to the present disclosure. The experimental method was the same as the Experimental Example 1-1.
In the Experimental Examples 1-4, it was determined whether there is additionally concentration dependence for Example 4 (UDCA-Trp), a compound with good inhibitory ability. […]

SMILES	amount of HBeAg DNA detected compared to the negative control group (Mock) (HBV virus)	effect of inhibiting the binding between PreS1 and NTCP expressing cell lines by treatment concentration ([1]; 0.2 μM, 2 μM, 10 μM, 50 μM, 20 nM PreS1)	relative fluorescence intensity compared to Comparative Example 1 (LCA) ([1]; compound 50 µM, 20 nM PreS1, 4° C., 2 hours, lower = more inhibited binding)
CC(C)[C@H](NC(=O)CC[C@@H](C)[C@H]1CC[C@H]2[C@@H]3CC[C@@H]4C[C@H](O)CC[C@]4(C)[C@H]3CC[C@]12C)C(=O)N[C@@H](Cc1c[nH]c2ccccc12)C(=O)O [Example 25, (S)-2-((S)-2-((R)-4-((3R,5R,8R,9S,10S,13R,14S,17R)-3-hydroxy-10,13-dimethyl-hexadecahydro-1H-cyclopenta[a]phenanthren-17-yl)pentanamido)-3-methylbutanamido)-3-(1H-indol-3-yl)propanoic acid]	relatively less amount	–	–
C[C@H](CCC(=O)N[C@@H](Cc1ccc(O)cc1)C(=O)O)[C@H]1CC[C@H]2[C@@H]3CC[C@@H]4C[C@H](O)CC[C@]4(C)[C@H]3CC[C@]12C [Example 52, (S)-2-((R)-4-((3R,5R,8R,9S,10S,13R,14S,17R)-3-hydroxy-10,13-dimethyl-hexadecahydro-1H-cyclopenta[a]phenanthren-17-yl)pentanamido)-3-(4-hydroxyphenyl)propanoic acid]	relatively less amount	concentration dependent	low and lower
C[C@H](CCC(=O)N[C@@H](CCC(=O)O)C(=O)O)[C@H]1CC[C@H]2[C@@H]3CC[C@@H]4C[C@H](O)CC[C@]4(C)[C@H]3CC[C@]12C [Example 55, (S)-2-((R)-4-((3R,5R,8R,9S,10S,13R,14S,17R)-3-hydroxy-10,13-dimethyl-hexadecahydro-1H-cyclopenta[a]phenanthren-17-yl)pentanamido)pentanedioic acid]	relatively less amount	–	–
